Test [1] relates to F21D (DNA, G4) GGGTTAGGGTTAGGGTTAGGG
Nature of the test: FRET melting. The note with it: 5 mM K+, 95 mM Li+ (5 K buffer); 10 mM Li cacodylate pH 7.2; 0.2 µM F21D; sub-micromolar RHPS4; printed 'at least 15 °C'.

Test [2] deals with Oligo A (DNA, G4) GGATGGGGTGGGGAGG
Description: CD melting (264 nm). The note with it: 5 mM K+, 95 mM Li+ (5 K buffer); 5 µM oligo; 2 eq RHPS4; 10 mM Li cacodylate pH 7.2.

Test [3] concerns Oligo B (DNA, G4) GGGGGATGCGGGGG
Nature of the test: UV-Vis titration. The note with it: 5 mM K+, 95 mM Li+ (5 K buffer); 10 mM Li cacodylate pH 7.2; 20 µM RHPS4 titrated with annealed oligo; two-state direct fit.

Test [4] concerns Oligo A (DNA, G4) GGATGGGGTGGGGAGG
Nature of the test: UV-Vis titration. The note with it: 5 mM K+, 95 mM Li+ (5 K buffer); 10 mM Li cacodylate pH 7.2; 20 µM RHPS4 titrated with annealed oligo; two-state direct fit.

The subject of test [5] is Oligo B (DNA, G4) GGGGGATGCGGGGG
Nature of the test: CD melting (260 nm alone, 295 nm with RHPS4). To be noted: 5 mM K+, 95 mM Li+ (5 K buffer); 5 µM oligo; 2 eq RHPS4; 10 mM Li cacodylate pH 7.2.

As to `Cc1cc2c3c([n+](C)c4ccc(F)cc4c3c1)-c1cc(F)ccc1N2C`, the ΔTm (in general, the change in melting temperature against a reference sample) in test [1] turned out to be 15 °C. Further, the figures for the melting temperature increase in test [2] and in test [5] were 7.2 °C and 14.9 °C, respectively. Also, the Ka in test [3] and in test [4] was 0.5 ± 0.3 × 10^6 /M in each case.

(Values after article PMC6447596 (2019).)
